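Test compounds were applied to cells in 96-well plates for 48 hours at 5 doses. GI50 marks 50% less growth.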 Activity calls are given as the source filed them. Cut-off read from the data, not from the text of the source: active = GI50 up to about 1.1 µM and inactive = higher.
Columns and labels:
Experiment in all cases: NCI tumour cell line growth inhibition, 48 h
DMS-114 = tested on: DMS-114
HOP-62 = tested on: HOP-62
IGROV-1 = tested on: IGROV-1
M19-MEL = tested on: M19-MEL
HL-60 = tested on: HL-60
DLD-1 = tested on: DLD-1
XF498 = tested on: XF498
SF-268 = tested on: SF-268
OVCAR-3 = tested on: OVCAR-3
A498 = tested on: A498
NCI-H460 = tested on: NCI-H460
KM-20L2 = tested on: KM-20L2
RPMI-8226 = tested on: RPMI-8226
ACHN = tested on: ACHN
M14 = tested on: M14
786-0 = tested on: 786-0
MDA-MB-231 = tested on: MDA-MB-231
DU-145 = tested on: DU-145
MDA-N = tested on: MDA-N
Hs-578T = tested on: Hs-578T

| SMILES | GI50 (DMS-114) | GI50 (HOP-62) | GI50 (IGROV-1) | GI50 (M19-MEL) | GI50 (HL-60) | GI50 (DLD-1) | GI50 (XF498) | GI50 (SF-268) | GI50 (OVCAR-3) | GI50 (A498) | GI50 (NCI-H460) | GI50 (KM-20L2) | GI50 (RPMI-8226) | GI50 (ACHN) | GI50 (M14) | GI50 (786-0) | GI50 (MDA-MB-231) | GI50 (DU-145) | GI50 (MDA-N) | GI50 (Hs-578T) |
| --- | --- | --- | --- | --- | --- | --- | --- | --- | --- | --- | --- | --- | --- | --- | --- | --- | --- | --- | --- | --- |
| CCCCC(C)C1CCC2(C)C=CC(=O)C(C)=C2C1O (stereo unspecified) | > 100 µM (inactive) | > 100 µM (inactive) | > 100 µM (inactive) | > 100 µM (inactive) | > 100 µM (inactive) | > 100 µM (inactive) | > 100 µM (inactive) | > 100 µM (inactive) | > 100 µM (inactive) | > 100 µM (inactive) | > 100 µM (inactive) | > 100 µM (inactive) | > 100 µM (inactive) |  |  |  |  |  |  |  |
| CCCCCC1CC(C(C)=O)CN1c1ccc(F)cc1 (stereo unspecified) | 20.3 µM (inactive) |  |  | 39.7 µM (inactive) | > 10 µM (inactive) | 32 µM (inactive) | 21.1 µM (inactive) | 32 µM (inactive) | 28.1 µM (inactive) | 77.6 µM (inactive) | 44.4 µM (inactive) | 35.3 µM (inactive) |  | 26.9 µM (inactive) | 35 µM (inactive) |  |  |  |  |  |
| CN(C)CCCNc1ccc2nnn3c4ccc(O)cc4c(=O)c1c23 | 9.18 µM (inactive) | 3.27 µM (inactive) | 1.92 µM (inactive) | 12.6 µM (inactive) | 3.72 µM (inactive) | 1.42 µM (inactive) |  | 2.88 µM (inactive) | 9.02 µM (inactive) | 6.92 µM (inactive) | 0.453 µM (active) | 3.3 µM (inactive) | 2.47 µM (inactive) | 1.26 µM (inactive) | 7.89 µM (inactive) | 2.86 µM (inactive) | 10.7 µM (inactive) | 5.01 µM (inactive) | 6.52 µM (inactive) | 1.41 µM (inactive) |
| Nc1ccc2[nH]c3c(-c4ccccc4)nccc3c2c1 | 37.6 µM (inactive) | > 84.5 µM (inactive) | 57.4 µM (inactive) | 64.6 µM (inactive) | 12 µM (inactive) | 64.7 µM (inactive) | 61.2 µM (inactive) | > 100 µM (inactive) | 56.9 µM (inactive) | 36.5 µM (inactive) | 11.3 µM (inactive) | 48.3 µM (inactive) | 20.3 µM (inactive) |  |  |  |  |  |  |  |
| Nc1nc(Cl)cc(NCCCCCCCCCCCCNc2cc(Cl)nc(N)n2)n1 |  | 12.2 µM (inactive) | 15.8 µM (inactive) | 11.8 µM (inactive) | 1.14 µM (inactive) | 4.61 µM (inactive) | 0.386 µM (active) | 28.2 µM (inactive) | 11.1 µM (inactive) | 12.9 µM (inactive) | 2.5 µM (inactive) | 49.1 µM (inactive) | > 100 µM (inactive) |  | 38 µM (inactive) |  |  |  |  |  |
| [N-]=[N+]=CC(=O)OCC(N)C(=O)O (stereo unspecified) | 1.59 µM (inactive) | 0.582 µM (active) | 1.15 µM (inactive) | 1.41 µM (inactive) | 0.448 µM (active) | 0.344 µM (active) | 5.96 µM (inactive) | 0.685 µM (active) | 0.841 µM (active) | 0.764 µM (active) | 0.411 µM (active) | 0.157 µM (active) | 0.528 µM (active) |  |  |  |  |  |  |  |
| CC1(C)CCc2cc3c(cc2O1)OC(C)(C)CC3=O | 40.9 µM (inactive) | 23.2 µM (inactive) | > 100 µM (inactive) | 88.7 µM (inactive) | 23.4 µM (inactive) | 97.5 µM (inactive) | 50.8 µM (inactive) | > 100 µM (inactive) | 27.5 µM (inactive) |  | > 100 µM (inactive) |  | > 100 µM (inactive) | 88.9 µM (inactive) | > 100 µM (inactive) |  |  |  |  |  |
| O=C1C2=C(c3ccccc31)C(c1ccc(Cl)cc1)NC(S)=N2 (stereo unspecified) | 22.7 µM (inactive) | 28.2 µM (inactive) | 19 µM (inactive) | 20 µM (inactive) | 17.5 µM (inactive) | 22.8 µM (inactive) |  | 17.4 µM (inactive) | 20.1 µM (inactive) | 79.1 µM (inactive) | 34.8 µM (inactive) | 20.4 µM (inactive) | 20.3 µM (inactive) | 42.7 µM (inactive) | 23.3 µM (inactive) | 17.9 µM (inactive) |  |  |  |  |
| CS(=O)(=O)OCC1=C(COS(C)(=O)=O)C(=O)c2c(O)ccc(O)c2C1=O | > 100 µM (inactive) | > 100 µM (inactive) | > 100 µM (inactive) |  | > 100 µM (inactive) | > 100 µM (inactive) |  | > 100 µM (inactive) | > 100 µM (inactive) | > 100 µM (inactive) |  | > 100 µM (inactive) | > 100 µM (inactive) | > 100 µM (inactive) | > 100 µM (inactive) |  |  |  |  |  |
| [N-]=[N+]=CC(=O)c1ccccc1C#CCCc1ccccc1 | 5.83 µM (inactive) | 31.6 µM (inactive) | 36.9 µM (inactive) |  | 8.05 µM (inactive) | 39.4 µM (inactive) | 12.1 µM (inactive) |  | 20.2 µM (inactive) | 28.4 µM (inactive) | 23.2 µM (inactive) | 23.6 µM (inactive) | 14 µM (inactive) | 22.6 µM (inactive) | 38.8 µM (inactive) |  |  |  |  |  |
| CCCCCC/C(CC(=O)CCC(=O)NCCc1ccccc1)=N\NC(=O)c1ccc2ccccc2c1O |  | 36.7 µM (inactive) | 33.7 µM (inactive) | 23.3 µM (inactive) | 7.78 µM (inactive) | 36.9 µM (inactive) | 63 µM (inactive) | 22.6 µM (inactive) | 28.8 µM (inactive) |  | 36.5 µM (inactive) | 35.1 µM (inactive) | 46 µM (inactive) | 28.2 µM (inactive) | 33.3 µM (inactive) | 31.6 µM (inactive) |  |  |  |  |
| Cc1c2ccnc(-c3ccccc3)c2cc2c1[nH]c1ccccc12 | 1.69 µM (inactive) | 2.6 µM (inactive) | 2.63 µM (inactive) | 0.959 µM (active) | 2.09 µM (inactive) | 2.99 µM (inactive) |  | 4.31 µM (inactive) | 3.4 µM (inactive) | 0.219 µM (active) | 1.06 µM (active) | 2.61 µM (inactive) | 2.77 µM (inactive) |  |  |  |  |  |  |  |
| CCCCCCCCCCC(C)CCCCCCC(=O)O (stereo unspecified) | > 100 µM (inactive) | > 100 µM (inactive) | > 100 µM (inactive) | > 100 µM (inactive) | > 100 µM (inactive) | > 100 µM (inactive) |  | > 100 µM (inactive) | > 100 µM (inactive) | > 100 µM (inactive) | > 100 µM (inactive) |  | > 100 µM (inactive) | > 100 µM (inactive) | > 100 µM (inactive) | > 100 µM (inactive) |  |  |  |  |
| O=c1cc(N2CCCC2)[nH]c(=O)n1-c1cccc(C(F)(F)F)c1 |  | > 100 µM (inactive) | > 100 µM (inactive) |  | > 100 µM (inactive) |  |  | > 100 µM (inactive) | > 100 µM (inactive) | > 100 µM (inactive) | > 100 µM (inactive) |  | 76.4 µM (inactive) | > 100 µM (inactive) | > 100 µM (inactive) | > 100 µM (inactive) | > 100 µM (inactive) | > 100 µM (inactive) | > 100 µM (inactive) | > 100 µM (inactive) |
| CC(C)NC(=O)OCc1c(COC(=O)NC(C)C)c(-c2cc[n+](COC(=O)Cc3ccccc3)cc2)n2c1CCC2 |  | 72.9 µM (inactive) | > 100 µM (inactive) |  | 31.9 µM (inactive) |  |  | 55.1 µM (inactive) | > 100 µM (inactive) | > 100 µM (inactive) | 52 µM (inactive) |  | > 100 µM (inactive) | 40.5 µM (inactive) | > 100 µM (inactive) | 46 µM (inactive) | > 100 µM (inactive) | > 100 µM (inactive) | > 100 µM (inactive) | > 100 µM (inactive) |

— ChEMBL document CHEMBL1201862, “PubChem BioAssay data set” (2004)
